Legend:
[1] = test system: CYPIIB2; assay: BROD conversion to resorufin by in vivo induced hepatocytes; design: species or system porcine
Description: (§1) Cells were isolated using a modification of the Seglen method which has been described earlier (Seglen, P., Preparation of isolated rat liver cells, In Meth. in Cell. Bio. (D M Prescott, ed.), vol. 13. Academic Press (NY, N.Y.), 1976.). Briefly, the exposed liver was cannulated and perfused in situ with cold Lactated Ringers (Baxter, Deerfield, Ill.) at 250 ml/minute before excision and transport to the lab. The liver was quickly warmed and perfused with 0.2% EDTA at 37° C. This was followed by perfusion of 1 mg/ml collagenase (Life Technologies, Grand Island, N.Y.) at 37° C. until digestion appeared complete (mean digestion 22±4 min). Further digestion was stopped with the addition of cold HBSS (BioWhittaker, Walkersville, Md.) supplemented with 10% NBCS (Hyclone, Logan, Utah). Undigested tissue and gall bladder were excised and the remainder of the tissue passed through 200 and 100 micron stainless steel sieves (Fisher Scientific, Pittsburgh, Pa.). The cell suspension was washed twice and the cell pellet resuspended in culture media. Viability was determined by Trypan blue exclusion and Calcein AM staining (Molecular Probes, Eugene, Oreg.). Hepatocytes derived from the isolation process following in vivo induction show lower viability when compared to control conditions (77% n=7 versus 89% n=40), yet the cells detoxify xenobiotics at a greater rate. Immediately after isolation, 10^6 cells were assayed for total protein with the BCA kit (Pierce Biochemical, Rockford, Ill.).
(§2) Cells were plated onto 60 mm tissue culture dishes at a density of 2×10^6 cells per dish (Corning, Corning, N.Y.) in Williams' E media supplemented with 1% NBCS (newborn calf serum), 4.5 g/L glucose, 0.5 U/ml bovine insulin, 7 ng/ml glucagon, 7.5 μg/ml hydrocortisone, 10 mM HEPES (Sigma), 20 ng/ml EGF, […] (Life Technologies), 10 IU/ml penicillin and 10 μg/ml streptomycin (BioWhittaker). Hepatocytes were incubated at 37° C. in humidified 10% CO2. Culture medium was changed on day 1 post-isolation and then every 2-3 days. Media samples taken at each change were stored for assay of albumin and urea.

[2] = test system: CYPIIB2; assay: BROD conversion to resorufin by in vitro induced hepatocytes; type: cell-based, porcine
Description: (§3) For comparison, in vitro induced hepatocyte cultures were prepared. Hepatocytes were procured using the method described above but from non-induced pigs and then induced in culture. Cells were plated onto 60 mm tissue culture dishes (Corning, Corning, N.Y.) in Williams' E media supplemented with 1% NBCS (newborn calf serum), 4.5 g/L glucose, 0.5 U/ml bovine insulin, 7 ng/ml glucagon, 7.5 μg/ml hydrocortisone, 10 mM HEPES (Sigma), 20 ng/ml EGF, […] (Life Technologies), 10 IU/ml penicillin and 10 μ/ml streptomycin (BioWhittaker). […]
(§4) To measure increased isozyme activity in both in vivo and in vitro induced cultures compared to non-induced controls, both in vivo induced and in vitro induced cultures from Example 1 were incubated with EROD, MROD, PROD or BROD (Molecular Probes) at 5 μM (in Williams' E media without serum and phenol red). […] Samples were analyzed in a Turner 450 fluorometer at 540ex and 585em nm. Resorufin formation was quantified using a standard curve that was linear from 0.5 to 130 nM and data are expressed as net resorufin gain over background fluorescence. In this assay, conversion of the alkoxyresorufins to resorufin corresponds to an increase in fluorescence such that the ratio of fluorescences, or activity, corresponds directly to the level of P450 activity of a particular set of isoenzymes.

[3] = test system: CYPIA2; assay: 7-Ethoxycoumarin metabolism by in vivo induced hepatocytes; design: species or system porcine
[4] = test system: CYPIIB1; assay: PROD conversion to resorufin by in vivo induced hepatocytes; design: species or system porcine; conditions: for Degree of isozyme activity increase over noninduced control: PROD substrate, hepatocytes induced in vivo
Description: as §1, §2

[5] = test system: CYPIIB1; assay: PROD conversion to resorufin by in vitro induced hepatocytes; type: cell-based, porcine
Description: as §3, §4

[6] = test system: CYPIA2; assay: Lidocaine clearance by in vivo induced hepatocytes; design: species or system porcine; conditions: Lidocaine substrate (clearance), 40 to 80 mg/kg
Description: A series of in vivo induction studies utilized various doses and injection regimes ranging from 40 to 80 mg/kg on days −4 to −1 with phenobarbital in PBS; 3-methlycholanthrene (in DMSO or benzene);or, β-naphthoflavone (in DMSO) given at 5 to 15 mg/kg on days −3, −2 and/or −1 prior to surgical removal of the liver. Yorkshire/Hampshire crossbred pigs weighing 8.3±3.0 kg were obtained from E M Parsons (Hadley, Mass.). All injections of induction agents were administered into the peritoneal cavity.
Cells were isolated using a modification of the Seglen method which has been described earlier (Seglen, P., Preparation of isolated rat liver cells, In Meth. in Cell. Bio. (D M Prescott, ed.), vol. 13. Academic Press (NY, N.Y.), 1976.). […] Viability was determined by Trypan blue exclusion and Calcein AM staining (Molecular Probes, Eugene, Oreg.). […]
Lidocaine (Paddock Laboratories Inc., Minneapolis, Minn.) clearance was assayed using a modification of the protocol of Nyberg et al. Pharmacokinetic analysis verifies P450function in in vitro and in vivo application of a bioartificial liver, ASAIO, 39:M252-M256, 1993. […] The reverse phase HPLC was carried out with a flow rate of 1 ml/minute on a Microsorb C8 column (Rainin Instrument Co., Woburn, Mass.) at room temperature and monitored at 214 nm. […]

[7] = test system: CYPIIB2 and CYPIIB1 isozymes; assay: Maintenance of isozyme function four days after plating of in vivo induced hepatocytes; conditions: in vivo induced with 40 to 80 mg/kg once each day, 4 doses
Description: (§5) To measure increased isozyme activity in both in vivo and in vitro induced cultures compared to non-induced controls, both in vivo induced and in vitro induced cultures from Example 1 were incubated with EROD, MROD, PROD or BROD (Molecular Probes) at 5 μM (in Williams' E media without serum and phenol red). Dicumarol (80 μM, Sigma) was included in the incubation to limit cytosolic degradation of the resorufin end product. Samples were analyzed in a Turner 450 fluorometer at 540ex and 585em nm. Resorufin formation was quantified using a standard curve that was linear from 0.5 to 130 nM and data are expressed as net resorufin gain over background fluorescence. In this assay, conversion of the alkoxyresorufins to resorufin corresponds to an increase in fluorescence such that the ratio of fluorescences, or activity, corresponds directly to the level of P450 activity of a particular set of isoenzymes.

[8] = test system: CYPIIB1; assay: Diazepam clearance by in vivo induced hepatocytes; design: species or system porcine
Description: as §1, with “Ill.). […]” for “Ill.).”
Diazepam clearance was assayed in the cultures of Example 1 using a method similar to that of Jauregui et al. Xenobiotic induction of P-450 PB-4 (IIB1) and P-450c (IA1) and associated monooxygenase activities in primary cultures of adult rat hepatocytes. […] This reverse phase HPLC run was conducted at a flow rate of 1.0 ml/min through a micro-Bondpak C18 column (Waters) with absorbance set at 254 nm. […]

[9] = test system: CYPIA1; assay: EROD conversion to resorufin by in vitro induced hepatocytes; type: cell-based, porcine
Description: For comparison, in vitro induced hepatocyte cultures were prepared. Hepatocytes were procured using the method described above but from non-induced pigs and then induced in culture. Cells were plated onto 60 mm tissue culture dishes (Corning, Corning, N.Y.) in Williams' E media supplemented with 1% NBCS (newborn calf serum), 4.5 g/L glucose, 0.5 U/ml bovine insulin, 7 ng/ml glucagon, 7.5 μg/ml hydrocortisone, 10 mM HEPES (Sigma), 20 ng/ml EGF, […] (Life Technologies), 10 IU/ml penicillin and 10 μ/ml streptomycin (BioWhittaker). Experimental conditions were treated with culture medium containing any one of the following: 2 mM phenobarbital (PB; Sigma) for 96 hours, 50 μM β-naphthoflavone (BNF; Sigma) for 24 hours, or 5 μM 3-methlycholanthrene (3-MC; Sigma) for 24 hours.
as §5

[10] = test system: CYPIA2; assay: MROD conversion to resorufin by in vivo induced hepatocytes; design: species or system porcine; conditions: for Degree of isozyme activity increase over noninduced control: MROD substrate, hepatocytes induced in vivo, 10 to 15 mg/kg
Description: as §5

[11] = test system: CYPIA1; assay: EROD conversion to resorufin by in vivo induced hepatocytes; design: species or system porcine; conditions: for Degree of isozyme activity increase over noninduced control: EROD substrate, hepatocytes induced in vivo, 10 to 15 mg/kg
Description: as §1
Cells were plated onto 60 mm tissue culture dishes at a density of 2×10^6 cells per dish (Corning, Corning, N.Y.) in Williams' E media supplemented with 1% NBCS (newborn calf serum), 4.5 g/L glucose, 0.5 U/ml bovine insulin, 7 ng/ml glucagon, 7.5 μg/ml hydrocortisone, 10 mM HEPES (Sigma), 20 ng/ml EGF, […] (Life Technologies), 10 IU/ml penicillin and 10 μg/ml streptomycin (BioWhittaker). Hepatocytes were incubated at 37° C. in humidified 10% CO2. Culture medium was changed on day 1 post-isolation and then every 2-3 days. […]

[12] = test system: CYPIA2; assay: MROD conversion to resorufin by in vitro induced hepatocytes; type: cell-based, porcine; conditions: in vitro induction 5 μM for 24 hours; two million hepatocytes, day 2 of culture
Description: as §3, §4

[13] = three daily injections in vivo, day one of culture, 2x10^6 cells on 60 mm dish

CCC1(c2ccccc2)C(=O)NC(=O)NC1=O [Phenobarbital, phenobarbital]
Degree of isozyme activity increase over noninduced control ([1]; BROD substrate, hepatocytes induced in vivo, 40 to 80 mg/kg): 20 to 100-fold
rate of resorufin formation from the BROD substrate ([1]; in vivo induction, day 1): approximately 10.4 nM resorufin per minute
increase in function following in vivo induction [1, 13]: 70 fold
rate relative to average control rate of resorufin formed on day 1 from BROD ([1]; versus control 0.15 nM per minute): 69 times
increase in function over noninduced controls ([2]; in vitro induction 96 hours (2 mM), BROD, 3 hours incubation, day 4 of culture): 8.4 fold
rate of resorufin formation from the BROD substrate ([2]; in vitro induction, day 4): about 0.33 nM resorufin formed per minute
Degree of isozyme activity increase over noninduced control ([3]; 7-EC substrate, hepatocytes induced in vivo, 40 to 80 mg/kg): 20 to 50-fold
umbelliferone production rate ([3]; in vivo induced, 24 hours after adding 7-ethoxycoumarin, noninduced 2.58±1.9): 346±41.4 nM per hour
Degree of isozyme activity increase over noninduced control ([4]; 40 to 80 mg/kg): 2 to 40-fold
upregulation following in vivo induction [4, 13]: 38 fold
higher rate of PROD metabolism following treatment ([5]; in vitro induction 96 hours (2 mM), PROD, 3 hours incubation): 3 fold
Degree of isozyme activity increase over noninduced control [6]: 10 to 20-fold
Degree of isozyme activity increase over noninduced control ([6]; listed as phenobarbital): 10 to 20 fold
reduction of cytochrome P450 activity four days after plating [7]: about 50%
Degree of isozyme activity increase over noninduced control ([8]; Diazepam substrate, 40 to 80 mg/kg): 20 to 50-fold

O=c1cc(-c2ccccc2)oc2ccc3ccccc3c12 [Beta-Naphthoflavone, beta-naphthoflavone]
increase in function over control metabolic conversion of EROD ([9]; in vitro induction 24 hours, 50 μM): 14.8 fold
resorufin formed per minute ([9]; in vitro induction 24 hours, 50 μM, EROD, control 0.27 nM): 4.0 nM
Degree of isozyme activity increase over noninduced control [10]: 2 to 10-fold
Degree of isozyme activity increase over noninduced control [11]: 2 to 10-fold

Cc1ccc2cc3c(ccc4ccccc43)c3c2c1CC3 [3-Methylcholanthrene, 3-methylcholanthrene]
Degree of isozyme activity increase over noninduced control ([4]; 10 to 15 mg/kg): 2 to 10-fold
upregulation of CYPIIB1 (PROD) ([4]; in vivo administration): 8.4 fold
conversion rate relative to control rate [12]: 4 fold
effect on CYPIIB1 (upregulation) ([5]; in vitro induction): not observed
conversion rate relative to control rate ([9]; in vitro induction 5 μM for 24 hours, two million hepatocytes, day 2 of culture): 18 fold
Degree of isozyme activity increase over noninduced control [10]: 2 to 10-fold
increase over noninduced controls ([10]; in vivo induction, MROD): 7.6 fold
Degree of isozyme activity increase over noninduced control [11]: 10 to 20-fold
increase over noninduced controls ([11]; in vivo induction, EROD): 24 fold
Degree of isozyme activity increase over noninduced control ([8]; Diazepam substrate (clearance), 10 to 15 mg/kg): 2 to 10-fold
Degree of isozyme activity increase over noninduced control ([8]; Diazepam substrate (clearance), 10 to 15 mg/kg, listed as 3-methlycholanthrene): 2 to 10 fold

From patent publication US6699716B2, “In vivo induction for enhanced function of isolated hepatocytes” (priority 1999, dated 2004)
